14 compounds from patent US10633354B2, “Substituted tricyclic heterocyclic compounds” (BRISTOL-MYERS SQUIBB COMPANY, priority 2016, dated 2020) can be followed below.

A value given as a limit tells only on which side of the number the result lay.

Data set [1] can be described thus: Parent and phosphate concentrations in the BLR assay. Particulars: rat, in vivo, po, Lewis rats dosed orally. The procedure: (§1) Blood Lymphocyte Reduction (BLR) Assay in Rodent:
Lewis rats were dosed orally with vehicle alone (polyethylene glycol 300, “PEG300”) or with test compounds. Compounds were dosed as a solution or suspension in the vehicle, adjusted to reflect the free amount of test article in the event that salt forms are utilized. Blood was drawn at 24 hr and blood lymphocyte counts were determined on an ADVIA 120 Hematology Analyzer (Siemens Healthcare Diagnostics). The results were measured as a reduction in the percentage of circulating lymphocytes as compared to the vehicle treated group at the time of measurement. The results represent the average results of all animals within each treatment group (n=2).

The test system of a further data set is circulating lymphocytes. The experiment in a line: Blood Lymphocyte Reduction (BLR) assay in rodent. It counts as in vivo. Particulars: Lewis rats dosed orally; for BL (×10^3/mm^3): n=2; for Lymp. Red.: vs vehicle group. The procedure:
as §1
Lewis rats were dosed orally with vehicle alone (polyethylene glycol 300, “PEG300”) or with test compounds. Compounds were dosed as a solution or suspension in the vehicle, adjusted to reflect the free amount of test article in the event that salt forms are utilized. […] The results were measured as a reduction in the percentage of circulating lymphocytes as compared to the vehicle treated group at the time of measurement. The results represent the average results of all animals within each treatment group (n=2).

A short description of data set [2]: Parent and phosphate concentrations in the BLR assay. Particulars: rat, in vivo, po, Lewis rats dosed orally. The source holds these as a separate data set.

As to `CCCCCCOc1nc2ccc3cc([C@H]4CC[C@](N)(CO)C4)ccc3c2s1` [Example 13, ((1R,3S)-1-amino-3-(2-(hexyloxy)naphtho[2,1-d]thiazol-7-yl)cyclopentyl)methanol], in data set [1], the concentration at 24 h is 78 nM. Also, in the data set with circulating lymphocytes (4 Hours), the “BL (×10^3/mm^3)” value was 2.5 ×10^3/mm^3 and the “Lymp. Red.” value was determined as 73%. Moreover, in the data set on circulating lymphocytes (24 Hours), the “BL (×10^3/mm^3)” value was 1.4 ×10^3/mm^3 and the “Lymp. Red.” value turned out to be 83%. In addition, the concentration at 4 h in data set [2] amounted to 65 nM.

For `CCCCCOc1nc2ccc3cc([C@H]4CC[C@](N)(CO)C4)ccc3c2s1` [Example 15, ((1R,3S)-1-amino-3-(2-(pentyloxy)naphtho[2,1-d]thiazol-7-yl)cyclopentyl)methanol], the concentration at 24 h in data set [1] is 17 nM. Moreover, in the data set on circulating lymphocytes (4 Hours), the “BL (×10^3/mm^3)” value was 1.7 ×10^3/mm^3 and the “Lymp. Red.” value worked out at 80%. Further, in the data set on circulating lymphocytes (24 Hours), the “BL (×10^3/mm^3)” value is given as 1.8 ×10^3/mm^3 and the “Lymp. Red.” value came to 80%. In addition, the concentration at 4 h in data set [2] came to 31 nM.

In the case of `CCCc1nc2c(s1)-c1ccc([C@H]3CC[C@](N)(CO)C3)cc1CC2` [Example 2, ((1R,3S)-1-amino-3-(2-propyl-4,5-dihydronaphtho[2,1-d]thiazol-7-yl)cyclopentyl) methanol], in data set [1], the concentration at 24 h is less than 19 nM. Also, the results for the “BL (×10^3/mm^3)” value in the data set on circulating lymphocytes (4 Hours) and in the data set on circulating lymphocytes (24 Hours) were 4.9 ×10^3/mm^3 and 8.2 ×10^3/mm^3, respectively. Besides, the “Lymp. Red.” value with circulating lymphocytes (4 Hours) is 41%; in the data set with circulating lymphocytes (24 Hours), 0%. Also, in data set [2], the concentration at 4 h came out at 108 nM.

As to `CCCCCCCc1nc2c(s1)-c1ccc([C@H]3CC[C@](N)(CO)C3)cc1CC2` [Example 1, ((1R,3S)-1-amino-3-(2-heptyl-4,5-dihydronaphtho[2,1-d]thiazol-7-yl)cyclopentyl) methanol], the concentration at 24 h in data set [1] amounted to 111 nM. In addition, the “BL (×10^3/mm^3)” value with circulating lymphocytes (4 Hours) is given as 5.7 ×10^3/mm^3; with circulating lymphocytes (24 Hours) it was 1.8 ×10^3/mm^3. Further, the “Lymp. Red.” value with circulating lymphocytes (4 Hours) is reported as 40%; in the data set with circulating lymphocytes (24 Hours), 77%. In data set [2], the concentration at 4 h was 66 nM.

Regarding `CCCCSc1nc2c(s1)-c1ccc([C@H]3CC[C@](N)(CO)C3)cc1CC2` [Example 10, ((1R,3S)-1-amino-3-(2-(butylthio)-4,5-dihydronaphtho[2,1-d]thiazol-7-yl)cyclopentyl)methanol], the concentration at 24 h in data set [1] was determined as 1 nM. Besides, the “BL (×10^3/mm^3)” value with circulating lymphocytes (4 Hours) is recorded as 1.7 ×10^3/mm^3; in the data set on circulating lymphocytes (24 Hours) it was 4.1 ×10^3/mm^3. Besides, the “Lymp. Red.” value with circulating lymphocytes (4 Hours) is recorded as 82%; in the data set with circulating lymphocytes (24 Hours), 48%. In addition, the concentration at 4 h in data set [2] was 9 nM.

Consider `CCCCCOc1nc2c(s1)-c1ccc([C@H]3CC[C@](N)(CO)C3)cc1CC2` [Example 12, ((1R,3S)-1-amino-3-(2-(pentyloxy)-4,5-dihydronaphtho[2,1-d]thiazol-7-yl)cyclopentyl)methanol], for which the concentration at 24 h in data set [1] was determined as 29 nM. Moreover, in the data set with circulating lymphocytes (4 Hours), the “BL (×10^3/mm^3)” value is on record as 2.8 ×10^3/mm^3 and the “Lymp. Red.” value turned out to be 67%. Besides, in the data set with circulating lymphocytes (24 Hours), the “BL (×10^3/mm^3)” value is reported as 1.8 ×10^3/mm^3 and the “Lymp. Red.” value is given as 80%. Moreover, the concentration at 4 h in data set [2] was 81 nM.

Regarding `CCCCCCc1nc2c(s1)-c1ccc([C@H]3CC[C@](N)(CO)C3)cc1CC2` [Example 5, ((1R,3S)-1-amino-3-(2-hexyl-4,5-dihydronaphtho[2,1-d]thiazol-7-yl)cyclopentyl)methanol], the concentration at 24 h in data set [1] stood at 9 nM. Further, in the data set on circulating lymphocytes (4 Hours), the “BL (×10^3/mm^3)” value was 2.8 ×10^3/mm^3 and the “Lymp. Red.” value turned out to be 66%. For the same compound, in the data set with circulating lymphocytes (24 Hours), the “BL (×10^3/mm^3)” value was 4.5 ×10^3/mm^3 and the “Lymp. Red.” value was 48%. In addition, the concentration at 4 h in data set [2] was 77 nM.

As to `CCCCSc1nc2ccc3cc([C@H]4CC[C@](N)(CO)C4)ccc3c2s1` [Example 14, ((1R,3S)-1-amino-3-(2-(butylthio)naphtho[2,1-d]thiazol-7-yl)cyclopentyl)methanol], the concentration at 24 h in data set [1] stood at 8 nM. In the data set with circulating lymphocytes (4 Hours), the “BL (×10^3/mm^3)” value is on record as 2.6 ×10^3/mm^3 and the “Lymp. Red.” value is listed as 69%. In addition, in the data set with circulating lymphocytes (24 Hours), the “BL (×10^3/mm^3)” value is given as 2.1 ×10^3/mm^3 and the “Lymp. Red.” value is given as 75%. For the same compound, in data set [2], the concentration at 4 h was 15 nM.

Turning to `CCCCc1nc2c(s1)-c1ccc([C@H]3CC[C@](N)(CO)C3)cc1CC2` [Example 6, ((1R,3S)-1-amino-3-(2-butyl-4,5-dihydronaphtho[2,1-d]thiazol-7-yl)cyclopentyl)methanol], the concentration at 24 h in data set [1] amounted to 66 nM. In addition, in the data set with circulating lymphocytes (4 Hours), the “BL (×10^3/mm^3)” value was 3.4 ×10^3/mm^3 and the “Lymp. Red.” value is reported as 59%. In addition, in the data set on circulating lymphocytes (24 Hours), the “BL (×10^3/mm^3)” value is 1.5 ×10^3/mm^3 and the “Lymp. Red.” value is 82%. For the same compound, the concentration at 4 h in data set [2] was 109 nM.

Consider `Cc1ccc(-c2nc3c(s2)-c2ccc([C@H]4CC[C@](N)(CO)C4)cc2CC3)cc1` [Example 19, ((1R,3S)-1-amino-3-(2-(p-tolyl)-4,5-dihydronaphtho[2,1-d]thiazol-7-yl)cyclopentyl)methanol], for which the concentration at 24 h in data set [1] came out at 37 nM. The “BL (×10^3/mm^3)” value in the data set with circulating lymphocytes (4 Hours) was 7.5 ×10^3/mm^3; in the data set on circulating lymphocytes (24 Hours), 8.2 ×10^3/mm^3. The “Lymp. Red.” value with circulating lymphocytes (4 Hours) is 9%; in the data set on circulating lymphocytes (24 Hours), 2%. The concentration at 4 h in data set [2] is 48 nM.

Turning to `CCCCCCOc1nc2c(s1)-c1ccc([C@H]3CC[C@](N)(CO)C3)cc1CC2` [Example 9, ((1R,3S)-1-amino-3-(2-(hexyloxy)-4,5-dihydronaphtho[2,1-d]thiazol-7-yl)cyclopentyl) methanol], in data set [1], the concentration at 24 h is 31 nM. In addition, in the data set with circulating lymphocytes (4 Hours), the “BL (×10^3/mm^3)” value was 2.8 ×10^3/mm^3 and the “Lymp. Red.” value is reported as 66%. Besides, in the data set with circulating lymphocytes (24 Hours), the “BL (×10^3/mm^3)” value is recorded as 1.4 ×10^3/mm^3 and the “Lymp. Red.” value stood at 82%. In data set [2], the concentration at 4 h came to 72 nM.

As to `CCCCOc1nc2c(s1)-c1ccc([C@H]3CC[C@](N)(CO)C3)cc1CC2` [Example 8, ((1R,3S)-1-amino-3-(2-butoxy-4,5-dihydronaphtho[2,1-d]thiazol-7-yl)cyclopentyl)methanol], the concentration at 24 h in data set [1] turned out to be 7 nM. Also, the “BL (×10^3/mm^3)” value is 2.5 ×10^3/mm^3 in the data set with circulating lymphocytes (4 Hours) and 2.4 ×10^3/mm^3 in the data set with circulating lymphocytes (24 Hours). For the same compound, the “Lymp. Red.” value is 74% in the data set with circulating lymphocytes (4 Hours) and 68% in the data set with circulating lymphocytes (24 Hours). For the same compound, the concentration at 4 h in data set [2] is 35 nM.

As for `COc1cccc(-c2nc3c(s2)-c2ccc([C@H]4CC[C@](N)(CO)C4)cc2CC3)c1` [Example 20, ((1R,3S)-1-amino-3-(2-(3-methoxyphenyl)-4,5-dihydronaphtho[2,1-d]thiazol-7-yl)cyclopentyl)methanol], the concentration at 24 h in data set [1] worked out at 68 nM. For the same compound, in the data set on circulating lymphocytes (4 Hours), the “BL (×10^3/mm^3)” value is 5.7 ×10^3/mm^3 and the “Lymp. Red.” value amounted to 31%. In the data set on circulating lymphocytes (24 Hours), the “BL (×10^3/mm^3)” value is 3.1 ×10^3/mm^3 and the “Lymp. Red.” value was 63%. Further, in data set [2], the concentration at 4 h was found to be 97 nM.

For the compound `CCCCOCCOc1nc2c(s1)-c1ccc([C@H]3CC[C@](N)(CO)C3)cc1CC2` [Example 7, ((1R,3S)-1-amino-3-(2-(2-butoxyethoxy)-4,5-dihydronaphtho[2,1-d]thiazol-7-yl)cyclopentyl)methanol], the concentration at 24 h in data set [1] stood at 142 nM. Moreover, in the data set on circulating lymphocytes (4 Hours), the “BL (×10^3/mm^3)” value is listed as 1.9 ×10^3/mm^3 and the “Lymp. Red.” value came out at 79%. In the data set on circulating lymphocytes (24 Hours), the “BL (×10^3/mm^3)” value is 1.2 ×10^3/mm^3 and the “Lymp. Red.” value is listed as 87%. For the same compound, the concentration at 4 h in data set [2] was determined as 1 nM.
